Experimental data reported in ChEMBL document CHEMBL1201862, “PubChem BioAssay data set” (2004).
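1) Cells in 96-well plates. 2) Compound, 48 h, 5 concentrations. 3) Linear interpolation between surrounding doses. 4) Unreached endpoint = highest concentration. Here, GI50 denotes the concentration required for 50% inhibition of growth.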 Activity calls are given as the source filed them. Rule as the data show it: active = GI50 up to about 1.1 µM and inactive = higher.

Key:
Assay in all cases: NCI-60 cell line screen, 48 h
UACC-62 = test system: UACC-62
Malme-3M = test system: Malme-3M
ACHN = test system: ACHN
NCI-H460 = test system: NCI-H460
OVCAR-4 = test system: OVCAR-4
HOP-62 = test system: HOP-62
CAKI-1 = test system: CAKI-1
HCT-15 = test system: HCT-15
K562 = test system: K562
SK-MEL-28 = test system: SK-MEL-28
SNB-75 = test system: SNB-75
OVCAR-5 = test system: OVCAR-5
SF-295 = test system: SF-295
SNB-19 = test system: SNB-19
NCI-H522 = test system: NCI-H522
M14 = test system: M14
RXF 393 = test system: RXF 393
MDA-MB-435 = test system: MDA-MB-435
DU-145 = test system: DU-145
SR = test system: SR

SMILES	GI50 (UACC-62)	GI50 (Malme-3M)	GI50 (ACHN)	GI50 (NCI-H460)	GI50 (OVCAR-4)	GI50 (HOP-62)	GI50 (CAKI-1)	GI50 (HCT-15)	GI50 (K562)	GI50 (SK-MEL-28)	GI50 (SNB-75)	GI50 (OVCAR-5)	GI50 (SF-295)	GI50 (SNB-19)	GI50 (NCI-H522)	GI50 (M14)	GI50 (RXF 393)	GI50 (MDA-MB-435)	GI50 (DU-145)	GI50 (SR)
CC[N+]1(C)CCC(O)(c2ccc(OC)cc2)C(C(=O)c2ccc(OC)cc2)C1 (stereo unspecified)	18.8 µM (inactive)	6.44 µM (inactive)	13.1 µM (inactive)	21.8 µM (inactive)	22 µM (inactive)	18.9 µM (inactive)	5.9 µM (inactive)	10.2 µM	2.25 µM (inactive)	15.1 µM (inactive)	13.7 µM (inactive)	18.7 µM (inactive)	20 µM (inactive)	32.1 µM (inactive)	1.98 µM (inactive)	8.69 µM (inactive)	7 µM (inactive)	16.8 µM (inactive)	15.9 µM (inactive)	2.34 µM (inactive)
O=c1ccn(Cc2ccccc2CCl)c(=O)[nH]1	26.9 µM (inactive)	20.2 µM (inactive)	26.9 µM (inactive)	> 100 µM (inactive)	69.7 µM (inactive)	25.7 µM (inactive)	25 µM (inactive)	18.4 µM	34.8 µM (inactive)	33.8 µM (inactive)	45.2 µM (inactive)	21.5 µM (inactive)	23.3 µM (inactive)	33.3 µM (inactive)	20.4 µM (inactive)	26.2 µM (inactive)	24 µM (inactive)	28.9 µM (inactive)	32.4 µM (inactive)	27.7 µM (inactive)
CNCCN[C@@H]1c2cc3c(cc2[C@@H](c2cc(OC)c(O)c(OC)c2)[C@H]2C(=O)OC[C@@H]21)OCO3	0.132 µM (active)	0.288 µM (active)	0.106 µM (active)	< 0.01 µM (active)	5.3 µM (inactive)	0.141 µM (active)	0.264 µM (active)	3.21 µM	0.177 µM (active)	0.665 µM (active)	0.274 µM (active)	0.966 µM (active)	0.0973 µM (active)	0.291 µM (active)	0.251 µM (active)	0.394 µM (active)	0.229 µM (active)	1.66 µM (inactive)	0.27 µM (active)	0.0122 µM (active)
O=c1oc2ccccc2cc1-c1ccc([N+](=O)[O-])cc1	89.5 µM (inactive)	> 100 µM (inactive)	> 100 µM (inactive)	14.6 µM (inactive)	> 100 µM (inactive)	> 100 µM (inactive)	> 100 µM (inactive)	> 100 µM	> 100 µM (inactive)	> 100 µM (inactive)	> 100 µM (inactive)	> 100 µM (inactive)	83.6 µM (inactive)	14.7 µM (inactive)	56.1 µM (inactive)	> 100 µM (inactive)	> 100 µM (inactive)	> 100 µM (inactive)	> 100 µM (inactive)	57.9 µM (inactive)
CCOc1ccc2nc(NC(=O)C(=O)C(C(=O)c3ccccc3-c3ccccc3)C3OC(=O)c4ccccc43)sc2c1 (stereo unspecified)	16.4 µM (inactive)	13.8 µM (inactive)	30.2 µM (inactive)	19.5 µM (inactive)	35.2 µM (inactive)	25.5 µM (inactive)	23.2 µM (inactive)	22.4 µM	22.3 µM (inactive)	20.2 µM (inactive)	21.3 µM (inactive)	44.3 µM (inactive)	21.6 µM (inactive)	14 µM (inactive)	16.7 µM (inactive)	27.6 µM (inactive)	13.4 µM (inactive)	25.4 µM (inactive)	21.9 µM (inactive)	9.79 µM (inactive)
O=C(c1cccs1)N1CCN(C(=O)c2cccs2)C1=S	5.89 µM (inactive)	9.38 µM (inactive)	7.41 µM (inactive)	6.75 µM (inactive)	16.9 µM (inactive)	5.04 µM (inactive)	3.68 µM (inactive)	3.99 µM	3.05 µM (inactive)	5.13 µM (inactive)	2.28 µM (inactive)	16 µM (inactive)	16.4 µM (inactive)	12.4 µM (inactive)	3.98 µM (inactive)	3.83 µM (inactive)	2.6 µM (inactive)	2.88 µM (inactive)	2.51 µM (inactive)	3.43 µM (inactive)
O=C1C(=O)C(CCCO)(CCCO)CCCCCCCCC1(CCCO)CCCO	88.1 µM (inactive)	> 100 µM (inactive)	> 100 µM (inactive)	> 100 µM (inactive)	> 100 µM (inactive)	> 100 µM (inactive)	> 100 µM (inactive)	> 100 µM	23.7 µM (inactive)	41.9 µM (inactive)	50.1 µM (inactive)	> 100 µM (inactive)	> 100 µM (inactive)	61.5 µM (inactive)	48.4 µM (inactive)	37.4 µM (inactive)	17.3 µM (inactive)	61.2 µM (inactive)	75.7 µM (inactive)	18.6 µM (inactive)
O=S(=O)(O)c1cc(O)c2c(O)c(/N=N/c3cccc4ccccc34)c(S(=O)(=O)O)cc2c1	> 100 µM (inactive)	> 100 µM (inactive)	> 100 µM (inactive)		> 100 µM (inactive)	> 100 µM (inactive)	> 100 µM (inactive)	> 100 µM	> 100 µM (inactive)	> 100 µM (inactive)	> 100 µM (inactive)	> 100 µM (inactive)	> 100 µM (inactive)	> 100 µM (inactive)	> 100 µM (inactive)	> 100 µM (inactive)	> 100 µM (inactive)	> 100 µM (inactive)	> 100 µM (inactive)	> 100 µM (inactive)
CCOP(=O)(OCC)C(NC(=O)OCC(Cl)(Cl)Cl)n1nnc(C(=O)OC)c1C(=O)OC (stereo unspecified)	> 100 µM (inactive)	> 100 µM (inactive)	> 100 µM (inactive)	> 100 µM (inactive)	> 100 µM (inactive)	> 100 µM (inactive)	> 100 µM (inactive)	> 100 µM	> 100 µM (inactive)	> 100 µM (inactive)	> 100 µM (inactive)		> 100 µM (inactive)	> 100 µM (inactive)	> 100 µM (inactive)	> 100 µM (inactive)	> 100 µM (inactive)	> 100 µM (inactive)	> 100 µM (inactive)	> 100 µM (inactive)
Nc1nc(Cl)c(/C=N\O)c(NCC2(CO)CCC2)n1		30.6 µM (inactive)	26.3 µM (inactive)	32.1 µM (inactive)	27 µM (inactive)	30.6 µM (inactive)	25.6 µM (inactive)	60.8 µM	14 µM (inactive)	54.6 µM (inactive)	59.3 µM (inactive)	70.8 µM (inactive)	21.2 µM (inactive)	53.2 µM (inactive)	14.8 µM (inactive)		22.4 µM (inactive)	40.2 µM (inactive)	40.4 µM (inactive)	11.6 µM (inactive)
Nc1ccccc1C#CC(=O)c1cccc(C(F)(F)F)c1	1.86 µM (inactive)	6.1 µM (inactive)		19.3 µM (inactive)	2.22 µM (inactive)	7.24 µM (inactive)	3.21 µM (inactive)		3.01 µM (inactive)		14.1 µM (inactive)	6.59 µM (inactive)	15.7 µM (inactive)	14.5 µM (inactive)	1.09 µM (active)	2.22 µM (inactive)	2.25 µM (inactive)	2.52 µM (inactive)	3.24 µM (inactive)	2.27 µM (inactive)
Cc1cc(N(C)C)ccc1/N=N/c1ccc2ncccc2c1	> 100 µM (inactive)	62.4 µM (inactive)	> 100 µM (inactive)	27.4 µM (inactive)			> 100 µM (inactive)	40.6 µM	29.8 µM (inactive)		25.4 µM (inactive)	> 100 µM (inactive)	> 100 µM (inactive)	28.9 µM (inactive)	13.3 µM (inactive)	> 100 µM (inactive)	> 100 µM (inactive)	> 100 µM (inactive)	> 100 µM (inactive)	44.4 µM (inactive)
Cc1cc(C)c2c(c1)C(=O)C1(C2)Cc2c(ccc(C)c2C)C1=O (stereo unspecified)	> 100 µM (inactive)	22.3 µM (inactive)	> 100 µM (inactive)	> 100 µM (inactive)	> 100 µM (inactive)		> 100 µM (inactive)	> 100 µM	> 100 µM (inactive)	> 100 µM (inactive)	> 100 µM (inactive)		> 100 µM (inactive)	> 100 µM (inactive)	43.8 µM (inactive)	> 100 µM (inactive)	> 100 µM (inactive)	> 100 µM (inactive)	> 100 µM (inactive)	> 100 µM (inactive)
N=C(N)N/N=C/c1nc2n(c1[N+](=O)[O-])CCS2	42.8 µM (inactive)	15.6 µM (inactive)	> 100 µM (inactive)	18.1 µM (inactive)	16.2 µM (inactive)	41.4 µM (inactive)	> 100 µM (inactive)	65.3 µM		43.7 µM (inactive)	23.9 µM (inactive)	43.8 µM (inactive)	26.4 µM (inactive)	27.5 µM (inactive)	12.9 µM (inactive)	25.2 µM (inactive)	20.8 µM (inactive)	27.9 µM (inactive)	27.3 µM (inactive)	14.5 µM (inactive)
N#CC(/N=N/c1ccc(Cl)cc1)c1nc2ccccc2o1 (stereo unspecified)	20.6 µM (inactive)	34.6 µM (inactive)	32.9 µM (inactive)	> 100 µM (inactive)	30.2 µM (inactive)	38.3 µM (inactive)	> 100 µM (inactive)	> 100 µM	15.5 µM (inactive)	> 100 µM (inactive)		> 100 µM (inactive)	27.9 µM (inactive)	42.7 µM (inactive)	10.6 µM (inactive)	> 100 µM (inactive)	37.6 µM (inactive)	> 100 µM (inactive)	> 100 µM (inactive)	43.7 µM (inactive)
